Measured values published in PMC5218480 (PLoS ONE, 2017).

Tested on: MV-4-11 cells
Assay: Gene expression microarray analysis (Affymetrix PrimeView) and GSEA
Assay type: cell-based, human
Design: RFU PODN (11730768_x_at) / Fold change /veh PODN (11730768_x_at) / RFU LINC00158 (11744669_a_at) / Fold change /veh LINC00158 (11744669_a_at) / RFU DUSP10 (11751237_a_at) / Fold change /veh DUSP10 (11751237_a_at) / RFU ID3 (11757404_x_at) / Fold change /veh ID3 (11757404_x_at) / RFU PLEKHG5 (11737974_s_at) / Fold change /veh PLEKHG5 (11737974_s_at) / RFU LRRC4B (11730491_at) / Fold change /veh LRRC4B (11730491_at) / RFU GIMAP4 (11747438_a_at) / Fold change /veh GIMAP4 (11747438_a_at) / RFU KRT8 (11758183_x_at) / Fold change /veh KRT8 (11758183_x_at) / RFU CNN1 (11734310_a_at) / Fold change /veh CNN1 (11734310_a_at) / RFU VPS37D (11726825_at) / Fold change /veh VPS37D (11726825_at) / RFU C10orf10 (11716522_x_at) / Fold change /veh C10orf10 (11716522_x_at) / RFU KIR2DL2 /// KIR2DL4 /// KIR2DL5A /// KIR2DL5B /// KIR2DS1 /// KIR2DS2 /// KIR2DS3 /// KIR2DS4 /// KIR3DL3 /// KIR3DL3 /// KIR3DS1 (11738374_at) / Fold change /veh KIR2DL2 /// KIR2DL4 /// KIR2DL5A /// KIR2DL5B /// KIR2DS1 /// KIR2DS2 /// KIR2DS3 /// KIR2DS4 /// KIR3DL3 /// KIR3DL3 /// KIR3DS1 (11738374_at) / RFU C1QL1 (11718748_at) / Fold change /veh C1QL1 (11718748_at) / RFU TMPRSS4 (11747572_a_at) / Fold change /veh TMPRSS4 (11747572_a_at) / RFU HAMP (11756126_x_at) / Fold change /veh HAMP (11756126_x_at) / RFU RNFT2 (11725882_a_at) / Fold change /veh RNFT2 (11725882_a_at) / RFU NR4A2 (11747474_a_at) / Fold change /veh NR4A2 (11747474_a_at) / RFU ABCC12 (11746883_a_at) / Fold change /veh ABCC12 (11746883_a_at) / RFU TMEM136 (11760407_x_at) / Fold change /veh TMEM136 (11760407_x_at) / RFU CLDN22 /// WWC2 (11732394_at) / Fold change /veh CLDN22 /// WWC2 (11732394_at) / RFU HLA-DPB1 (11760878_x_at) / Fold change /veh HLA-DPB1 (11760878_x_at) / RFU SPINT1 (11716480_a_at) / Fold change /veh SPINT1 (11716480_a_at) / RFU GAP43 (11754022_s_at) / Fold change /veh GAP43 (11754022_s_at) / RFU A4GNT (11735810_at) / Fold change /veh A4GNT (11735810_at) / RFU PRB3 (11715151_x_at) / Fold change /veh PRB3 (11715151_x_at) / RFU TUBB4B (11761932_at) / Fold change /veh TUBB4B (11761932_at) / RFU CAPN14 (11732068_a_at) / Fold change /veh CAPN14 (11732068_a_at) / RFU TMCC2 (11721928_a_at) / Fold change /veh TMCC2 (11721928_a_at) / RFU IRGQ (11745062_a_at) / Fold change /veh IRGQ (11745062_a_at) / RFU FAM174B (11720279_a_at) / Fold change /veh FAM174B (11720279_a_at) / RFU TMPRSS4 (11748680_a_at) / Fold change /veh TMPRSS4 (11748680_a_at) / RFU FAM212B (11763350_a_at) / Fold change /veh FAM212B (11763350_a_at) / RFU PLEKHG5 (11743358_a_at) / Fold change /veh PLEKHG5 (11743358_a_at) / RFU ZSCAN30 (11745921_a_at) / Fold change /veh ZSCAN30 (11745921_a_at) / RFU CMKLR1 (11741424_a_at) / Fold change /veh CMKLR1 (11741424_a_at) / RFU LOC101060620 /// MAPK8IP1 (11723275_at) / Fold change /veh LOC101060620 /// MAPK8IP1 (11723275_at) / RFU SPTSSB (11747773_x_at) / Fold change /veh SPTSSB (11747773_x_at) / RFU PRSS12 (11739890_at) / Fold change /veh PRSS12 (11739890_at) / RFU BIN1 (11741810_x_at) / Fold change /veh BIN1 (11741810_x_at) / RFU WNT11 (11732464_a_at) / Fold change /veh WNT11 (11732464_a_at) / RFU C10orf10 (11716521_a_at) / Fold change /veh C10orf10 (11716521_a_at) / RFU C5orf56 (11738089_at) / Fold change /veh C5orf56 (11738089_at) / RFU CYB561 (11721691_x_at) / Fold change /veh CYB561 (11721691_x_at) / RFU ANKRD19P (11752326_a_at) / Fold change /veh ANKRD19P (11752326_a_at) / RFU OR2T12 /// OR2T33 /// OR2T8 (11738714_s_at) / Fold change /veh OR2T12 /// OR2T33 /// OR2T8 (11738714_s_at) / RFU VCAN (11748164_a_at) / Fold change /veh VCAN (11748164_a_at) / RFU JSRP1 (11732532_at) / Fold change /veh JSRP1 (11732532_at) / RFU KRTAP10-11 (11738290_x_at) / Fold change /veh KRTAP10-11 (11738290_x_at) / RFU MYO3A (11730013_a_at) / Fold change /veh MYO3A (11730013_a_at) / RFU EBF3 (11725865_a_at) / Fold change /veh EBF3 (11725865_a_at) / RFU CAMK2N1 (11719241_x_at) / Fold change /veh CAMK2N1 (11719241_x_at) / RFU C5orf56 (11738088_a_at) / Fold change /veh C5orf56 (11738088_a_at) / RFU OLFML3 (11715873_a_at) / Fold change /veh OLFML3 (11715873_a_at) / RFU LOC100653217 /// NTM (11731650_a_at) / Fold change /veh LOC100653217 /// NTM (11731650_a_at) / RFU MAPK11 (11762145_a_at) / Fold change /veh MAPK11 (11762145_a_at) / RFU FIZ1 (11724087_x_at) / Fold change /veh FIZ1 (11724087_x_at) / RFU OASL (11726364_x_at) / Fold change /veh OASL (11726364_x_at) / RFU SOX15 (11748057_x_at) / Fold change /veh SOX15 (11748057_x_at) / RFU CD79A (11719716_a_at) / Fold change /veh CD79A (11719716_a_at) / RFU HIST1H1D (11736915_at) / Fold change /veh HIST1H1D (11736915_at) / RFU CASKIN2 (11723855_a_at) / Fold change /veh CASKIN2 (11723855_a_at) / RFU LOC730098 (11760151_x_at) / Fold change /veh LOC730098 (11760151_x_at) / RFU OR4N2 (11742367_at) / Fold change /veh OR4N2 (11742367_at) / RFU PRRT2 (11749266_a_at) / Fold change /veh PRRT2 (11749266_a_at) / RFU SNX32 (11753110_a_at) / Fold change /veh SNX32 (11753110_a_at) / RFU CDHR5 (11726645_a_at) / Fold change /veh CDHR5 (11726645_a_at) / RFU RCAN1 (11760418_a_at) / Fold change /veh RCAN1 (11760418_a_at) / RFU FAM167A (11723789_a_at) / Fold change /veh FAM167A (11723789_a_at) / RFU FAM26E (11764081_at) / Fold change /veh FAM26E (11764081_at) / RFU ISYNA1 (11749810_s_at) / Fold change /veh ISYNA1 (11749810_s_at) / RFU ACY1 (11761880_at) / Fold change /veh ACY1 (11761880_at) / RFU 11764098_at / Fold change /veh 11764098_at / RFU SAMD14 (11745864_x_at) / Fold change /veh SAMD14 (11745864_x_at) / RFU NPB (11741838_a_at) / Fold change /veh NPB (11741838_a_at) / RFU TMPRSS6 (11731388_a_at) / Fold change /veh TMPRSS6 (11731388_a_at) / RFU KRTAP10-2 (11738614_at) / Fold change /veh KRTAP10-2 (11738614_at) / RFU ARHGAP8 /// PRR5-ARHGAP8 (11727945_x_at) / Fold change /veh ARHGAP8 /// PRR5-ARHGAP8 (11727945_x_at) / RFU KRTAP5-7 /// NADSYN1 (11734609_at) / Fold change /veh KRTAP5-7 /// NADSYN1 (11734609_at) / RFU RASL12 (11751679_a_at) / Fold change /veh RASL12 (11751679_a_at) / RFU CDKN2B (11736163_a_at) / Fold change /veh CDKN2B (11736163_a_at) / RFU PRF1 (11729649_at) / Fold change /veh PRF1 (11729649_at) / RFU, ZNF638 /// ZNF638-IT1 / Fold change vs veh, ZNF638 /// ZNF638-IT1 / RFU, PANK3 / Fold change vs veh, PANK3 / RFU, SH3YL1 / Fold change vs veh, SH3YL1 / RFU, ZEB2 / Fold change vs veh, ZEB2 / RFU, NRIP1 / Fold change vs veh, NRIP1 / RFU, PTTG1IP / Fold change vs veh, PTTG1IP / RFU, CAPN2 / Fold change vs veh, CAPN2 / RFU, MED14 / Fold change vs veh, MED14 / RFU, SNORA58 / Fold change vs veh, SNORA58 / RFU, C1orf63 / Fold change vs veh, C1orf63 / RFU, LRRFIP1 / Fold change vs veh, LRRFIP1 / RFU, NDUFAF7 / Fold change vs veh, NDUFAF7 / RFU, SLC12A2 / Fold change vs veh, SLC12A2 / RFU, IBTK / Fold change vs veh, IBTK / RFU, ESF1 / Fold change vs veh, ESF1 / Fold change vs veh, TMEM50B / RFU, TAOK1 / Fold change vs veh, TAOK1 / RFU, ACBD3 / Fold change vs veh, ACBD3 / RFU, TMA16 / Fold change vs veh, TMA16 / RFU, RWDD3 / Fold change vs veh, RWDD3 / RFU, BCAT1 / Fold change vs veh, BCAT1 / RFU, EDEM3 / Fold change vs veh, EDEM3 / RFU, TMEM33 / Fold change vs veh, TMEM33 / RFU, WDR75 / Fold change vs veh, WDR75 / RFU, AHCTF1 / Fold change vs veh, AHCTF1 / RFU, TFRC / Fold change vs veh, TFRC / RFU, ZDHHC17 / Fold change vs veh, ZDHHC17 / RFU, NOM1 / Fold change vs veh, NOM1 / RFU, ARL8B / Fold change vs veh, ARL8B / RFU, ZBTB11 / Fold change vs veh, ZBTB11 / RFU, TAMM41 / Fold change vs veh, TAMM41 / RFU, KIAA1704 /// LOC100996395 / Fold change vs veh, KIAA1704 /// LOC100996395 / RFU, ING1 / Fold change vs veh, ING1 / RFU, TRMT61B / Fold change vs veh, TRMT61B / RFU, FUBP3 / Fold change vs veh, FUBP3 / RFU, TP53 / Fold change vs veh, TP53 / RFU, TNKS2 / Fold change vs veh, TNKS2 / RFU, ZFP14 / Fold change vs veh, ZFP14 / RFU, ACTR2 / Fold change vs veh, ACTR2 / RFU, PPP3R1 / Fold change vs veh, PPP3R1 / RFU, PIK3R1 / Fold change vs veh, PIK3R1 / RFU, HNRNPA1 / Fold change vs veh, HNRNPA1 / RFU, RNF170 / Fold change vs veh, RNF170 / RFU, ZNF28 / Fold change vs veh, ZNF28 / RFU, RNGTT / Fold change vs veh, RNGTT / RFU, OGT / Fold change vs veh, OGT / RFU, BRD1 / Fold change vs veh, BRD1 / RFU, MARS / Fold change vs veh, MARS / RFU, ZNF655 / Fold change vs veh, ZNF655 / RFU, FAHD1 / Fold change vs veh, FAHD1 / RFU, BDP1 / Fold change vs veh, BDP1 / RFU, LRRCC1 / Fold change vs veh, LRRCC1 / RFU, ARID1A / Fold change vs veh, ARID1A / RFU, ZNF146 / Fold change vs veh, ZNF146 / RFU, ZNF330 / Fold change vs veh, ZNF330 / RFU, GPN3 / Fold change vs veh, GPN3 / RFU, C9orf123 / Fold change vs veh, C9orf123 / RFU, N4BP2L2 / Fold change vs veh, N4BP2L2 / RFU, ARFIP1 / Fold change vs veh, ARFIP1 / RFU, FAM179B / Fold change vs veh, FAM179B / RFU, BCL10 / Fold change vs veh, BCL10 / RFU, UHRF1BP1L / Fold change vs veh, UHRF1BP1L / RFU, BET1 / Fold change vs veh, BET1 / RFU, CNOT2 / Fold change vs veh, CNOT2 / RFU, ZNF268 / Fold change vs veh, ZNF268 / Fold change vs veh, ZNF507 / RFU, DGCR2 / Fold change vs veh, DGCR2 / RFU, WDSUB1 / Fold change vs veh, WDSUB1 / Fold change vs veh, HSP90B1 /// MIR3652 / RFU, ADSS / Fold change vs veh, ADSS / RFU, GK / Fold change vs veh, GK / RFU, ZNF148 / Fold change vs veh, ZNF148 / RFU, TAF9 / Fold change vs veh, TAF9 / RFU, SLC1A5 / Fold change vs veh, SLC1A5 / RFU, SLMO2 / Fold change vs veh, SLMO2 / RFU, ABCC4 / Fold change vs veh, ABCC4 / RFU, LOC101060439 /// RAP1B / Fold change vs veh, LOC101060439 /// RAP1B / RFU, RFX7 / Fold change vs veh, RFX7 / RFU, GTPBP10 / Fold change vs veh, GTPBP10 / RFU, CNEP1R1 / Fold change vs veh, CNEP1R1 / RFU, BIVM-ERCC5 /// ERCC5 / Fold change vs veh, BIVM-ERCC5 /// ERCC5 / RFU, ILF3 / Fold change vs veh, ILF3 / RFU 11762660_at / Fold change /veh 11762660_at / RFU VCAN (11757783_s_at) / Fold change /veh VCAN (11757783_s_at) / RFU DDX43 (11728927_at) / Fold change /veh DDX43 (11728927_at) / RFU KRT8 (11758188_x_at) / Fold change /veh KRT8 (11758188_x_at) / RFU NKD1 (11759106_at) / Fold change /veh NKD1 (11759106_at) / RFU SRD5A1 (11742802_a_at) / Fold change /veh SRD5A1 (11742802_a_at) / RFU TPSAB1 /// TPSB2 (11721975_s_at) / Fold change /veh TPSAB1 /// TPSB2 (11721975_s_at) / RFU GSTM3 (11746129_a_at) / Fold change /veh GSTM3 (11746129_a_at) / RFU IL23R (11737362_x_at) / Fold change /veh IL23R (11737362_x_at) / RFU TMEM51 (11727254_a_at) / Fold change /veh TMEM51 (11727254_a_at) / RFU PIWIL2 (11732686_x_at) / Fold change /veh PIWIL2 (11732686_x_at) / RFU ORM1 (11744905_x_at) / Fold change /veh ORM1 (11744905_x_at) / RFU CCDC152 (11743942_at) / Fold change /veh CCDC152 (11743942_at) / RFU ECM1 (11717891_a_at) / Fold change /veh ECM1 (11717891_a_at) / RFU IL23R (11748794_a_at) / Fold change /veh IL23R (11748794_a_at) / RFU TNFAIP8L3 (11732012_x_at) / Fold change /veh TNFAIP8L3 (11732012_x_at) / RFU MBOAT4 (11741988_at) / Fold change /veh MBOAT4 (11741988_at) / RFU 11764193_at / Fold change /veh 11764193_at / RFU TMEM53 (11763286_at) / Fold change /veh TMEM53 (11763286_at) / RFU MAGEB2 (11727129_at) / Fold change /veh MAGEB2 (11727129_at) / RFU TMEM200A (11744735_a_at) / Fold change /veh TMEM200A (11744735_a_at) / RFU CCDC152 (11751479_a_at) / Fold change /veh CCDC152 (11751479_a_at) / RFU FAM211A (11726209_a_at) / Fold change /veh FAM211A (11726209_a_at) / RFU RGS16 (11746705_a_at) / Fold change /veh RGS16 (11746705_a_at) / RFU VCAN (11755009_s_at) / Fold change /veh VCAN (11755009_s_at) / RFU RHOB (11743442_s_at) / Fold change /veh RHOB (11743442_s_at) / RFU RGS16 (11720943_a_at) / Fold change /veh RGS16 (11720943_a_at) / RFU RGS16 (11720944_at) / Fold change /veh RGS16 (11720944_at) / RFU, VPS4B / Fold change vs veh, VPS4B / RFU, CREB1 / Fold change vs veh, CREB1 / RFU, DNAJC13 / Fold change vs veh, DNAJC13 / RFU, GNAQ / Fold change vs veh, GNAQ / RFU, CDK5R1 / Fold change vs veh, CDK5R1 / RFU, ZRANB3 / Fold change vs veh, ZRANB3 / RFU, CUL4A / Fold change vs veh, CUL4A / RFU, CCNY / Fold change vs veh, CCNY / RFU, UFL1 / Fold change vs veh, UFL1 / RFU, COG3 / Fold change vs veh, COG3 / RFU, DIAPH2 / Fold change vs veh, DIAPH2 / RFU, SKA2 / Fold change vs veh, SKA2 / RFU, AFF3 / Fold change vs veh, AFF3 / RFU, LMF1 / Fold change vs veh, LMF1 / RFU, IPO11 / Fold change vs veh, IPO11 / RFU, DFFB / Fold change vs veh, DFFB / RFU, FOXP1 / Fold change vs veh, FOXP1 / RFU, CARD8 / Fold change vs veh, CARD8 / RFU, STRN3 / Fold change vs veh, STRN3 / RFU, ADK / Fold change vs veh, ADK / RFU, RASSF2 / Fold change vs veh, RASSF2 / RFU, WIPF1 / Fold change vs veh, WIPF1 / RFU, LARP1B / Fold change vs veh, LARP1B / RFU, RASA1 / Fold change vs veh, RASA1 / RFU, RB1 / Fold change vs veh, RB1 / RFU, PPFIA1 / Fold change vs veh, PPFIA1 / RFU, MAT2A / Fold change vs veh, MAT2A / RFU, CCT5 / Fold change vs veh, CCT5 / RFU, WDR92 / Fold change vs veh, WDR92 / RFU, CUX1 / Fold change vs veh, CUX1 / RFU, TTC7A / Fold change vs veh, TTC7A / RFU, TMEM135 / Fold change vs veh, TMEM135 / RFU, DEPTOR / Fold change vs veh, DEPTOR / RFU, CPM / Fold change vs veh, CPM / RFU, DNAJB6 / Fold change vs veh, DNAJB6 / RFU, CACNA2D3 / Fold change vs veh, CACNA2D3 / RFU, DTX4 / Fold change vs veh, DTX4 / RFU, TFCP2 / Fold change vs veh, TFCP2 / RFU, GMCL1 /// GMCL1P1 / Fold change vs veh, GMCL1 /// GMCL1P1 / RFU, AEBP2 / Fold change vs veh, AEBP2 / RFU, SNHG1 /// SNORD22 /// SNORD25 /// SNORD26 /// SNORD27 /// SNORD28 /// SNORD29 /// SNORD31 / Fold change vs veh, SNHG1 /// SNORD22 /// SNORD25 /// SNORD26 /// SNORD27 /// SNORD28 /// SNORD29 /// SNORD31 / Fold change (Aza/veh), C12orf56 (ProbeSet 11735607_a_at) / Fold change (ACY-1035/veh), C12orf56 (ProbeSet 11735607_a_at) / Fold change (Aza/veh), FGFR1OP (ProbeSet 11751329_s_at) / Fold change (ACY-1035/veh), FGFR1OP (ProbeSet 11751329_s_at) / Fold change (Aza/veh), VPS36 (ProbeSet 11739960_a_at) / Fold change (ACY-1035/veh), VPS36 (ProbeSet 11739960_a_at) / RFU SYPL1 (11715823_x_at) / Fold change /veh SYPL1 (11715823_x_at) / RFU IGFBP7 (11715501_s_at) / Fold change /veh IGFBP7 (11715501_s_at) / RFU REEP3 (11722064_at) / Fold change /veh REEP3 (11722064_at) / RFU IGLL1 (11728026_x_at) / Fold change /veh IGLL1 (11728026_x_at): dose or concentration left out as unconfirmed
Settings: MV-4-11 cells, 48 hours

## Nc1ccc(-c2cccs2)cc1NC(=O)c1ccc2c(c1)cc(C1CC1)n2CCN1CCOCC1 [ACY-1035]
  Fold change /veh DDX43 (11728927_at): 1.03
